In patent publication US10004702B2, “Linear guanidine derivatives, methods of preparation and uses thereof” (LEAD DISCOVERY SIENA S.R.L., priority 2014, dated 2018):
Values after ≈ are worked out from the molar mass of the structure shown.

Assays:
[1] = tested on: Achromobacter xylosoxidans AX 22; assay: Bactericidal activity (MBC); type: cell-based; conditions: AX22
[2] = tested on: Acinetobacter baumannii ATCC 17978; assay: Bactericidal activity (MBC); type: cell-based; conditions: ATCC17978
[3] = tested on: Escherichia coli CCUG^T; assay: Bactericidal activity (MBC); type: cell-based
[4] = tested on: Stenotrophomonas maltophilia 634/08; assay: Bactericidal activity (MBC); type: cell-based
[5] = tested on: Staphylococcus aureus ATCC 25923; assay: Bactericidal activity (MBC); type: cell-based; conditions: ATCC25923
[6] = Water solubility; type: physicochemical; conditions: thermodynamic from solid, room temperature, LC-UV-MS
Experimental: Solid compound 28 (1.01 mg) was added to 1 mL of water. The sample was shaken in a shaker bath at room temperature for 24 h. The suspension was filtered through a 0.45-μm nylon filter (Acrodisc), and the solubilised compound determined by LC-UV-MS assay. The determination was performed in triplicate. For the quantification was used an LC-UV-MS system consisted of a Varian apparatus (Varian Inc) including a vacuum solvent degassing unit, two pumps (212-LC), a Triple Quadrupole MSD (Mod. 320-LC) mass spectrometer with ES interface and Varian MS Workstation System Control Vers. 6.9 software. Chromatographic separation was obtained using a Pursuit C18 column (50×2.0 mm) (Varian) with 3 μm particle size and gradient elution: eluent A being CH3CN and eluent B consisting of an aqueous solution of formic acid (0.1%).
The flow rate was 0.4 ml/min and injection volume was 20 μL. The instrument operated in positive mode and parameters were: detector 1850 V, drying gas pressure 25.0 psi, desolvation temperature 300.0° C., nebulizing gas 45.0 psi, needle 5000 V and shield 600 V. Nitrogen was used as nebulizer and drying gas. Collision induced dissociation was performed using Argon as the collision gas at a pressure of 1.8 mTorr in the collision cell, the collision energy was set to 149 eV. UV lamp was set to 210 nm. […]

For N=C(N)NCCCCCCCCN(CCCCCCCCNC(=N)NCC1CC1)C(=O)N(CCCCCCCCNC(=N)N)CCCCCCCCNC(=N)NCC1CC1 [Compound 28, 1,3-bis(8-(3-(cyclopropylmethyl)guanidino)octyl)-1,3-bis(8-guanidinooctyl)urea], the MBC [1] was 8 µg/mL (≈ 9.46 µM), the MBC [2] was 4 µg/mL (≈ 4.73 µM) and the MBC [3] was 1 µg/mL (≈ 1.18 µM). It also gave an MBC [4] of 16 µg/mL (≈ 18.9 µM), an MBC [5] of 2 µg/mL (≈ 2.37 µM) and a solubility at 24 h [6] of 292 µg/mL (≈ 345 µM).
